Reference: patent US7358359B2, “Antibacterial agents” (University of Washington, priority 2003, dated 2008)

Legend:
S. aureus 29213 = assay: MIC broth microdilution, standard panel: S. aureus 29213; assay type: cell-based; conditions: Staphylococcus aureus, standard panel of organisms
Experimental: (§1) Bacterial isolates were cultivated from −70° C. frozen stocks by two consecutive overnight passages at 35° C. in ambient air on 5% blood agar (Remel, Lenexa, Kans.). Clinical isolates tested were from a collection composed of isolates collected during clinical trials and recent clinical isolates obtained from various geographically diverse hospitals in the US. Quality control and primary panel strains were from the American Type Culture Collection (ATCC; Rockville, Md.), with the exception of P. aeruginosa PAO200, a strain with a deletion of the mexABoprM genes that was received from Dr. H. Schweizer. […] Strain Z61 (ATCC 35151) is also hypersusceptible to antibacterials. It is thought that the hypersusceptibility of this strain is the result of increased permeability of its outer membrane (Angus B L et al, Antimicrobial Agents and Chemotherapy 1982 21,299-309: Outer membrane permeability in Pseudomonas aeruginosa: Comparison of a wild-type with an antibacterial-supersusceptible mutant).
(§2) Minimum Inhibitory Concentrations (MICs) were determined by the broth microdilution method in accordance with the National Committee for Clinical Laboratory Standards (NCCLS) guidelines. In brief, organism suspensions were are adjusted to a 0.5 McFarland standard to yield a final inoculum between 3×10^5 and 7×10^5 colony-forming units (CFU)/mL. Drug dilutions and inocula were made in sterile, cation adjusted Mueller-Hinton Broth (Remel). An inoculum volume of 100 μl was added to wells containing 100 μl of broth with 2-fold serial dilutions of drug. All inoculated microdilution trays were incubated in ambient air at 35° C. for 18-24 hours. Following incubation, the lowest concentration of the drug that prevented visible growth was recorded as the MIC. Performance of the assay was monitored by the use of laboratory quality-control strains against tobramycin, that has a defined MIC spectrum, in accordance with NCCLS guidelines.

E. coli 25922 = assay: MIC broth microdilution, standard panel: E. coli 25922; assay type: cell-based; conditions: Escherichia coli, standard panel of organisms
Experimental: as §1, §2

[1] = system: P. aeruginosa PAO200 mexAB; assay: MIC broth microdilution, standard panel: P. aeruginosa PAO200 mexAB; assay type: cell-based; conditions: Pseudomonas aeruginosa, PAO200MEXAB, read-out: MIC P. aeruginosa PAO200 mexAB
Experimental: as §1, §2

P. aeruginosa 27853 = assay: MIC broth microdilution, standard panel: P. aeruginosa 27853; assay type: cell-based; conditions: Pseudomonas aeruginosa, standard panel of organisms
Experimental: as §1, §2

P. aeruginosa LpxC = molecular target: T1, P. aeruginosa LpxC (Pseudomonas aeruginosa, UniProt P47205); assay: P. aeruginosa LpxC Inhibition Assay; assay type: biochemical; conditions: 2 nM P. aeruginosa LpxC, 90 min, room temperature; read-out: IC50 (nM), Enzyme inhibitory activity
T1 sequence (P47205 1-303): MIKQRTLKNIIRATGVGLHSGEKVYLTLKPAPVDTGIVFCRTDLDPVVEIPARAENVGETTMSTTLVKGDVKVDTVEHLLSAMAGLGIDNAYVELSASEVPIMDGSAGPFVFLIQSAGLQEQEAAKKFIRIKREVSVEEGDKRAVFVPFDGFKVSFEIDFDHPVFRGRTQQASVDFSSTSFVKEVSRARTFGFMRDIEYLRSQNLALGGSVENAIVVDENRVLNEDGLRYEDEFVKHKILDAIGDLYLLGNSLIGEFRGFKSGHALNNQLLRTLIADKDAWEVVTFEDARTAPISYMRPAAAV
Experimental: The assay followed the general method of Hyland et al (Journal of Bacteriology 1997 179, 2029-2037: Cloning, expression and purification of UDP-3-O-acyl-GlcNAc deacetylase from Pseudomonas aeruginosa: a metalloamidase of the lipid A biosynthesis pathway) and the radiolabeling procedure is according to Kline et al. supra. Briefly, samples were incubated with 2 nM P. aeruginosa LpxC and 150 nM [3H-Ac]-UDP-3-OR-3-hydroxydecanoyl)-GlcNAc in a total volume of 50 uL for 90 min at room temperature. Reactions were carried out in 96-well polypropylene plates in 50 mM sodium phosphate buffer, pH 7.5, containing 1 mg/mL BSA. Reactions were stopped by the addition of 180 uL of a 3% suspension of activated charcoal powder in 100 mM sodium acetate, pH 7.5. Supernatants were clarified by centrifugation. A portion of the clarified supernatant, containing the enzymatically released [3H]-acetate, was transferred to opaque white 96-well plates containing scintillation fluid. The radioactivity was measured in a Perkin-Elmer/Wallac Trilux Microbeta counter.

Molecule `O=C(NO)[C@H]1[C@H](O)CCN1C(=O)c1ccc(OC(F)(F)F)cc1` [Example 3, (2R,3R)-3-hydroxy-1-{[4-(trifluoromethoxy)phenyl]carbonyl}pyrrolidine-2-carbohydroxamic acid] has a melting point of 64 to 65 °C.

`NC[C@H](NC(=O)c1ccc(C#Cc2ccc(NC(=O)CNc3ccccc3)cc2)cc1)C(=O)NO` [Example 572, N-{(1S)-1-(aminomethyl)-2-(hydroxyamino)-2-oxoethyl]-4-[(4-{[(phenylamino)acetyl]amino}phenyl)ethynyl]benzamide] showed an MIC (S. aureus 29213) greater than 50 µg/mL, an MIC (E. coli 25922) of less than 6.25 µg/mL and an MIC [1] of less than 6.25 µg/mL. It also gave an MIC (P. aeruginosa 27853) of less than 6.25 µg/mL and an IC50 (P. aeruginosa LpxC) of less than 100 nM.

With `C[C@@H](O)[C@H](NC(=O)c1ccc(C#Cc2ccc(NC(=O)CNc3cnccn3)cc2)cc1)C(=O)NO` [Example 860, N-{(1S,2R)-2-hydroxy-1-[(hydroxyamino)carbonyl]propyl}-4-[(4-{[(pyrazin-2-ylamino)acetyl]amino}phenyl)ethynyl]benzamide] the MIC (S. aureus 29213) was greater than 50 µg/mL, the MIC (E. coli 25922) was less than 6.25 µg/mL and the MIC [1] was less than 6.25 µg/mL. The MIC (P. aeruginosa 27853) was less than 6.25 µg/mL and the IC50 (P. aeruginosa LpxC) was less than 100 nM.
